Data set [1] relates to cultured hippocampal neurons. As to the kind of experiment: Glutamate-induced apoptotic cell death in hippocampal neurons (Hoechst 33342). Format: cell-based, rat. The note with it: GLP-1 10 nM. The protocol: The fluorescent DNA binding dye Hoescht 33342 was used to measure apoptotic cell death. […] Cells were fixed in a solution of 4% paraformaldehyde in PBS and membranes were permeabilized with 0.2% Trition X-100. Following incubation with Hoechst 33342 (1 μM) for 30 min, nuclei were visualized under epifluorescence illumination (340 nm excitation, 510 nm barrier filter) using a 40× oil-immersion objective. Approximately 200 cells were counted in at least three separate dishes for each treatment condition, and experiments were repeated at least twice. Cells were considered apoptotic if nuclear DNA was fragmented or condensed, whereas cells with nuclear DNA of a more diffuse and uniform distribution, were considered viable. At the time of counting, the investigator was unaware of the identity of the treatment groups. The percentage of cells with condensed or fragmented nuclei was determined in each culture.

Data set [2] concerns Beta-2/NeuroD. As to the kind of experiment: Beta-2/NeuroD expression in PC12 cells (Western blot). Format: cell-based, rat. To be noted: PC12 cell lysates. An excerpt: Beta-2/NeuroD plays a major role in both neuronal and pancreatic endocrine development. […] Beta-2 expression in pancreatic endocrine cells, the intestine and the brain, activates insulin gene transcription and can induce neurons to differentiate. Mutant mice lacking the functional Beta-2 gene have a striking reduction in the number of insulin-producing beta cells, fail to develop mature islets and as a consequence develop severe diabetes often resulting in perinatal death (Naya et al 1997). Thus, Beta-2/NeuroD is essential for in vivo pancreatic development and neuronal differentiation.
NeuroD production was determined by Western blot analysis using anti-NeuroD antibody as described above for synaptophysin antibody, except peroxidase-linked anti-goat IgG (Santa Cruz Biotechnology Inc.) was used as the secondary antibody. […] Indeed, Noma et al (1999) have shown that overexpression of NeuroD in transfected PC12 cells induced morphological changes such as neurite-like processes and synapse-like structures, without a differentiating-inducing agent such as NGF.
Background: Immunoblotting shows a protein as a band on a membrane.

A short description of data set [3]: Stability in human serum by MALDI mass spectrometry. It is filed as in vitro ADME. To be noted: 100% serum, 2 h at 37° C. As for the experimental part: Both compounds (100 μM, 100 μl ) were incubated in an equivalent volume of human serum at 37° C. for 2 h. In all cases, enzymatic reactions were quenched by the addition of trifluoroacetic acid (0.1% v/v final concentration). Samples were immediately analyzed using Matrix Assisted […] Desorption Ionisation-Time Of Flight (MALDI-TOF) mass spectrometry. A Micromass MALDI-TOF (Micromass, Beverly, Mass.) reflectron instrument was used at a laser energy of 15-25% over a mass range of 1000-6000 Da, with 5 laser shots summed per spectrum. Alpha-cyano-4-hydroxycinnamicacid (Sigma, St. Louis, Mo.) was used as a matrix and was prepared to a concentration of 10 mg/ml in a 8 mg/ml ammonium carbonate (Sigma, St. Louis, Mo.) buffer. One microlitre samples were diluted 50/50 v/v with matrix before being transferred to the MALDI plate.

Data set [4] deals with Aβ1-40. As to the kind of experiment: Aβ1-40 sandwich ELISA of PC12 conditioned media. Format: cell-based, rat. The note with it: PC12 cells, relative to control cells. For orientation: In an ELISA, binding on a coated surface is turned into a signal by an enzyme label.
The subject of data set [5] is β-amyloid precursor protein (βAPP). The data set is described as follows: Western immunoblot of βAPP (cell lysates) and sAPP (conditioned media) in PC12 cells. The note with it: day 3, relative to untreated.
Data set [6] concerns PC12 cells. As to the kind of experiment: Neurite outgrowth in PC12 cells. It is filed as cell-based, rat. The note with it: low serum medium. The protocol:
Three dishes for each treatment condition were prepared. Treatments began 24 hours after seeding, once cells were well attached.
PC12 cells were grown on 60 mm dishes as above and cultured for four days. During this time neurite outgrowth was quantified daily. Five random fields of cells were evaluated per dish and the proportion of neurite-bearing cells was determined. Approximately 100 cells per field were scored for neurites equal to or greater in length than that of the cell body. A cell was only scored once, although it may have had more than one process per cell.

Data set [7] relates to Aβ1-40. As to the kind of experiment: Aβ1-40 in whole brain homogenates after i.c.v. infusion in control mice. It is filed as in vivo, mouse. The note with it: 48 h. As for the experimental part:
Lean db+/db+ control male mice (n=24) were anaesthetized with 50 mg/kg pentobarbitone and placed in a stereotaxic surgical frame with mouse adaptor (David Kopf Instruments, Tujunga, Calif.) using temporal bone cup holders. […] After 48 h all animals were sacrificed by cervical dislocation, the brains removed and rapidly frozen in liquid nitrogen. Brains were pulverized and stored at −80° C. prior to assaying for Aβ levels.
Equivalent volumes of conditioned media and whole brain homogenate were assayed for Aβ1-40 using a sandwich ELISA (Suzuki et. al., 1994). The monoclonal antibody BAN50 (raised against Aβ1-16) was used as the capture antibody for all species of Aβ (Aβ1-40 and Aβ1-42), and the monoclonal antibody BA27 was used to specifically detect Aβ1-40 levels. Levels of Aβ1-40 were expressed in pM concentrations for conditioned media samples and finol/g for the mouse brain homogenates, as deduced from the appropriate standard curve run in parallel with the assay.

Data set [8] has as its system synaptophysin. As to the kind of experiment: Synaptophysin expression in PC12 cells (Western blot). It is filed as cell-based, rat. To be noted: PC12 cell lysates, relative to untreated. The protocol: The synaptophysin monoclonal antibody (Oncogene Research Products, San Diego Calif.), which stains neurosecretory vesicles of PC12 cells, was used. The membranes were blocked with 20 mM Tris, 500 mM NaCl pH 7.4, 1% (w/v) casein (BioRad, San Diego Calif.) at 37° C. for 1 hour. Primary antibody was diluted in block and incubated with the proteins overnight at 4° C. The membrane was vigorously washed with 20 mM Tris pH 7.4, 150 mM NaCl and 0.05% Tween-20 (TBST), three times for 15 minutes at room temperature. The peroxidase-linked secondary antibody in block was incubated with the membrane for 2 hours at room temperature. Peroxidase-linked anti-mouse IgM (Chemicon, Tenecula, Calif.) was used as the secondary antibody against synaptophysin. Excess antibody was washed off with three vigorous washes in TBST prior to incubation in ECL Plus (Amersham, Philadelphia, Pa.) for 5 minutes. The membrane was subsequently exposed to photographic film.

Data set [9] concerns cultured hippocampal cells. As to the kind of experiment: Survival of hippocampal neurons exposed to Aβ1-42 or Fe2+. Format: cell-based, rat. To be noted: 2 h pretreatment, then 2 μM Aβ (1-42) or 1 μM Fe2+ for 24 hours. The protocol:
Hippocampi were removed from embryonic day 18 Sprague-Dawley rats, and cells were dissociated by mild trypsination and trituration and seeded onto polyethyleneimine-coated plastic 35 mm diameter dishes at a density of approximately 150 cells/mm^2 of culture surface. Cultures-were maintained in Neurobasal medium containing B-27 supplements (Gibco BRL, Carlsbad, Calif.), 2 mM L-glutamine, 1 mM Hepes and 0.001% gentamicin sulfate (Sigma, St. Louis, Mo.) in a 6% CO2/94% room air atmosphere at 37° C. When maintained under these conditions, the hippocampal cultures consisted of approximately 95% neurons and 5% astrocytes as determined by immunostaining with antibodies against the neuronal antigen NeuN and the astrocyte protein glial fibrillary acidic protein. Aβ1-42 was purchased from Bachem (Torrance, Calif.) and was prepared as a 1 mM stock solution in sterile water. FeSO4 was prepared as a 200 μM stock in sterile water.
Neuronal survival was quantified as described previously (Mark et. al., 1997). Briefly, viable neurons in premarked fields (10× objective) were counted before experimental treatment and at specified time points thereafter. […] Cultures were then exposed to 2 μM Aβ (1-42) or 1 μM Fe^2+ for 24 hours. […]

Data set [10] relates to Fischer-344 rats. The data set is described as follows: Ibotenic acid induced cholinergic marker deficit, i.c.v. infusion.

Take `CC[C@H](C)[C@H](NC(=O)[C@H](Cc1ccccc1)NC(=O)[C@H](CCC(=O)O)NC(=O)[C@H](CCCCN)NC(=O)[C@H](C)NC(=O)[C@H](C)NC(=O)[C@H](CCC(N)=O)NC(=O)CNC(=O)[C@H](CCC(=O)O)NC(=O)[C@H](CC(C)C)NC(=O)[C@H](Cc1ccc(O)cc1)NC(=O)[C@H](CO)NC(=O)[C@H](CO)NC(=O)[C@@H](NC(=O)[C@H](CC(=O)O)NC(=O)[C@H](CO)NC(=O)[C@@H](NC(=O)[C@H](Cc1ccccc1)NC(=O)[C@@H](NC(=O)CNC(=O)[C@H](CCC(=O)O)NC(=O)[C@H](C)NC(=O)[C@@H](N)Cc1c[nH]cn1)[C@@H](C)O)[C@@H](C)O)C(C)C)C(=O)N[C@@H](C)C(=O)N[C@@H](Cc1c[nH]c2ccccc12)C(=O)N[C@@H](CC(C)C)C(=O)N[C@H](C(=O)N[C@@H](CCCCN)C(=O)NCC(=O)N[C@@H](CCCNC(=N)N)C(N)=O)C(C)C` [GLP-1, glucagon-like peptide-1]: the “apoptotic cells, concurrent treatment with glutamate” value in data set [1] (10 μM glutamate overnight, exendin-4 0.3 μM (medium alone 23%, glutamate 73%)) is listed as 24%. The “protection against apoptotic effects of glutamate” value in data set [1] (10 μM glutamate, exendin-4 0.3 μM) is “completely protected”. The “apoptotic cells, peptide alone” value in [1] (exendin-4 0.3 μM, no glutamate) came out at 20%. Moreover, the “Beta-2/NeuroD expression (43 kDa band)” value in [2] is “increased following GLP-1 treatment”. Moreover, the “stability in human serum (N-terminal truncated product by MALDI)” value in data set [3] is listed as “considerable increase in the amount of N-terminal truncated product”. Besides, in [4], the “Aβ1-40 levels in conditioned media” value is reported as “did not significantly alter levels of Aβ1-40 production”. Further, the “intracellular levels of βAPP (cell lysates)” value in data set [5] is given as “significantly decreased intracellular levels of βAPP”. In [6], the “differentiation / neurite outgrowth” value is listed as “produced similar effects on differentiation to those induced by NGF”. In addition, the “reduction of Aβ1-40 levels compared to vehicle” value in [7] (3.3 μg GLP-1 i.c.v., not significant) was 16%; in [7] (6.6 μg GLP-1 i.c.v., p<0.01) it was 36%. The synaptophysin expression result in [8] is “dramatically reduced the expression of the synaptophysin protein”. Moreover, the “concentration of maximum protective effect against death induced by Aβ1-42 and Fe2+” value in data set [9] was 10 nM. The “Abercrombie corrected ChAT-positive cell counts, Left basal nucleus (lesion side)” value is 404 ± 59 in data set [10] (Lesion (ibotenic acid)) and 517 ± 50 in data set [10] (Sham). Besides, the “Abercrombie corrected ChAT-positive cell counts, Right basal nucleus (infusion side)” value in data set [10] (Lesion (ibotenic acid)) is 423 ± 45; in data set [10] (Sham), 499 ± 41. Moreover, in data set [10] (i.c.v. minipump infusion), the “food and water intake, body weight during infusion” value was “modestly aphagic and adipsic”. Also, the “loss of ChAT-immunoreactive cell bodies in left basal nucleus below that of the right basal nucleus” value in [10] (ibotenic acid lesion, 14 days i.c.v. infusion (vehicle 43%)) is recorded as 6%.
